Activity calls are given as the source filed them. The calls are words filed in the database; no cut-off is given here.
How the values were obtained:
[1] = Antitumor activity against […] Hepa1-6 cells assessed as inhibition of cell viability incubated for 72 hrs by SRB assay; type: functional, cell-based; settings: Mus musculus, Hepa1-6, 72 h
[2] = tested on: CT26; assay: Antitumor activity against mouse CT26 cells assessed as inhibition of cell viability incubated for 72 hrs by SRB assay; type: functional, cell-based; settings: CT26, 72 h
[3] = tested on: B16; assay: Antitumor activity against mouse B16 cells assessed as inhibition of cell viability incubated for 72 hrs by SRB assay; type: functional, cell-based; settings: B16, 72 h
[4] = tested on: LN-18; assay: Antitumor activity against human LN-18 cells assessed as inhibition of cell viability incubated for 72 hrs by SRB assay; type: functional, cell-based; settings: LN-18, 72 h
[5] = molecular target: Nicotinamide phosphoribosyltransferase (Homo sapiens, UniProt P43490); assay: Inhibition of recombinant human NAMPT preincubated for 5 mins followed by NAM addition measured for 15 mins by fluorescence based assay
Chain of Nicotinamide phosphoribosyltransferase (P43490 whole entry): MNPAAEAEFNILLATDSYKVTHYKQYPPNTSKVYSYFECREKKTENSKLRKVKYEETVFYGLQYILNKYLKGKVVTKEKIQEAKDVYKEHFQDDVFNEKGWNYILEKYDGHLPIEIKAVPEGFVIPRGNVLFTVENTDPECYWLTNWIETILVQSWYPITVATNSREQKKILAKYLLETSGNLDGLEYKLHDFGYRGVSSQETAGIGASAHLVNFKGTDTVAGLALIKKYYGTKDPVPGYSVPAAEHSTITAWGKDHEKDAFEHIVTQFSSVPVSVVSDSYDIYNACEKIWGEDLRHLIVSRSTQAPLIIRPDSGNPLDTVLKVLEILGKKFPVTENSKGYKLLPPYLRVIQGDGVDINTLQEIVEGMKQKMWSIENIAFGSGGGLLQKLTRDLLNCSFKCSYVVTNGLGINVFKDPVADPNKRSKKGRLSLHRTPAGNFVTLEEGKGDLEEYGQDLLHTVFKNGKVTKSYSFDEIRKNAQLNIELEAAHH

[6] = tested on: CT26; assay: Induction of DNA damage in mouse CT26 cells assessed as increase in gammaH2AX level at 0.1 to 10 uM measured after 12 hrs by immunoblot analysis; type: functional, cell-based; settings: dose 0.1-10 µM
[7] = tested on: LN-18; assay: Antitumor activity against human LN-18 cells assessed as inhibition of cell viability at 6 nM incubated for 72 hrs in presence of NNMT inhibitor by crystal violet staining based analysis; type: functional
[8] = tested on: B16; assay: Induction of DNA damage in mouse B16 cells assessed as increase in gammaH2AX level at 0.1 uM incubated for 24 hrs by immunoblot analysis; type: functional, cell-based
[9] = tested on: B16; assay: Induction of DNA damage in mouse B16 cells assessed as increase in gammaH2AX level upto 100 nM incubated for 24 hrs in presence of NMN by immunofluorescence staining based analysis; type: functional, cell-based
[10] = tested on: CT26; assay: Induction of DNA damage in mouse CT26 cells assessed as increase in gammaH2AX level at 0.1 to 50 uM incubated for 6 hrs by immunoblot analysis; type: functional, cell-based; settings: dose 0.1-50 µM
[11] = tested on: B16; assay: Induction of DNA damage in mouse B16 cells assessed as increase in gammaH2AX level at 100 nM incubated for 24 hrs by immunofluorescence staining based analysis; type: functional, cell-based
[12] = Toxicity in Balb/c mouse model allografted with mouse CT26 cells assessed as body weight loss at 2 mg/kg/day, ip for approximately 10 days; type: organism-based; settings: in vivo, 240 h, time 10 day
[13] = tested on: B16; assay: Induction of DNA damage in mouse B16 cells assessed as increase in gammaH2AX level at 20 nM incubated for 24 hrs in presence of olaparib by immunofluorescence staining based analysis; type: functional, cell-based
[14] = tested on: B16; assay: Antitumor activity against mouse B16 cells assessed as decrease in intracellular NAD level at 20 nM measured after 12 to 24 hrs in presence of olaparib by absorbance based assay; type: functional, cell-based; settings: time 12-24 hrs
[15] = tested on: Calf thymus DNA; assay: Binding affinity to calf thymus DNA assessed as decrease in fluorescence intensity at 100 to 200 uM by […] displacement assay; type: nucleic-acid assay; settings: Bos taurus; dose 100-200 µM
[16] = tested on: HepG2; assay: Antitumor activity against human HepG2 cells assessed as inhibition of cell viability at 20 to 80 uM incubated for 48 hrs by CCK8 assay; type: functional, cell-based; settings: dose 20-80 µM
[17] = tested on: LN-18; assay: Antitumor activity against human LN-18 cells assessed as inhibition of cell viability at 6 nM incubated for 72 hrs in presence of sirtuins inhibitor by crystal violet staining based analysis; type: functional
[18] = tested on: HCT-116; assay: Antitumor activity against human HCT-116 cells assessed as inhibition of cell viability at 20 to 80 uM incubated for 48 hrs by CCK8 assay; type: functional, cell-based; settings: dose 20-80 µM
[19] = molecular target: Nicotinamide phosphoribosyltransferase (Mus musculus) (UniProt Q99KQ4); assay: Binding affinity to NAMPT in mouse B16 cells assessed as increase in thermal stabilization incubated for 3 hrs followed by heating at 46 to 71 degreeC for 3 mins by CETSA assay; type: cell-based; settings: time 183.0 min
Chain of Nicotinamide phosphoribosyltransferase (Mus musculus) (Q99KQ4 whole entry, looked up): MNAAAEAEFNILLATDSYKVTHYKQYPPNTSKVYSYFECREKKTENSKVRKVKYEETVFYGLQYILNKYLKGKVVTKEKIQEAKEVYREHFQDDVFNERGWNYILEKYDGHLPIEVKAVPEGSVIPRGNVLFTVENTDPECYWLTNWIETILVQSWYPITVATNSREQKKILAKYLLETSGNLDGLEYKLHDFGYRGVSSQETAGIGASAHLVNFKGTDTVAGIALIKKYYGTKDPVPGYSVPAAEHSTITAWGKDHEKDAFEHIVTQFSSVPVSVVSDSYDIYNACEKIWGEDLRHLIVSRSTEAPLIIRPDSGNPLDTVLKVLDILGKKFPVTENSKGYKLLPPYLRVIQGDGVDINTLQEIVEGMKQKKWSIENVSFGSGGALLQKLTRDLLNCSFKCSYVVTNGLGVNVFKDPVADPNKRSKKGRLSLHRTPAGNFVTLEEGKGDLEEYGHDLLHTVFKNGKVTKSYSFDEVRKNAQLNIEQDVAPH

[20] = tested on: B16; assay: Induction of DNA damage in mouse B16 cells assessed as increase in gammaH2AX level at 1 uM incubated for 24 hrs by immunoblot analysis; type: functional, cell-based
[21] = tested on: CT26; assay: Antitumor activity against mouse CT26 cells assessed as decrease in intracellular NAD level upto 10 uM measured for 6 hrs by absorbance based assay; type: functional, cell-based
[22] = Toxicity in C57BL/6 mouse model allografted with mouse B16 cells assessed as body weight loss at 2 mg/kg/day, ip for approximately 10 days; type: organism-based; settings: in vivo, 240 h, time 10 day
[23] = tested on: CT26; assay: Antitumor activity against mouse CT26 cells allografted in Balb/c mouse model at 2 mg/kg/day, ip for approximately 10 days; type: functional, organism-based; settings: time 10.0 day
[24] = tested on: B16; assay: Induction of DNA damage in mouse B16 cells assessed as increase in gammaH2AX level at 0.1 uM incubated for 24 hrs by immunofluorescence staining based analysis; type: functional, cell-based
[25] = Stability in mouse microsomes assessed as half life; type: ADME, Microsome
[26] = tested on: A549; assay: Antitumor activity against human A549 cells assessed as inhibition of cell viability at 20 to 80 uM incubated for 48 hrs by CCK8 assay; type: functional, cell-based; settings: dose 20-80 µM
[27] = tested on: B16; assay: Induction of DNA damage in mouse B16 cells assessed as increase in gammaH2AX level at 100 nM by immunofluorescence staining based analysis; type: functional, cell-based; settings: time 2-24 hrs
[28] = tested on: HepG2; assay: Antitumor activity against human HepG2 cells assessed as decrease in intracellular NAD level measured for 24 hrs by absorbance based assay; type: functional, cell-based; settings: dose 0.032-100 µM
[29] = tested on: NCI-H1299; assay: Antitumor activity against human NCI-H1299 cells assessed as inhibition of cell viability at 20 to 80 uM incubated for 48 hrs by CCK8 assay; type: functional, cell-based; settings: dose 20-80 µM
[30] = tested on: B16; assay: Antitumor activity against mouse B16 cells assessed as decrease in intracellular NAD level at 20 to 100 nM measured after 12 to 24 hrs by absorbance based assay; type: functional, cell-based; settings: dose 20-100 nM, time 12-24 hrs
[31] = tested on: PANC-1; assay: Antitumor activity against human PANC-1 cells assessed as inhibition of cell viability at 20 to 80 uM incubated for 48 hrs by CCK8 assay; type: functional, cell-based; settings: dose 20-80 µM
[32] = tested on: CT26; assay: Induction of apoptosis in mouse CT26 cells incubated for 48 hrs by Annexin V-FITC/PI staining based flow cytometry; type: functional, cell-based; settings: dose 10-40 nM
[33] = tested on: MDA-MB-231; assay: Antitumor activity against human MDA-MB-231 cells assessed as inhibition of cell viability at 20 to 80 uM incubated for 48 hrs by CCK8 assay; type: functional, cell-based; settings: dose 20-80 µM

O=C(O)CCCc1ccc(N(CCCl)CCCl)cc1 [CHLORAMBUCIL]
IC50 [1]: > 1000 nM | IC50 [2]: > 1000 nM | IC50 [3]: > 1000 nM | IC50 [4]: > 1000 nM

O=C(/C=C/c1cccnc1)NCCCCC1CCN(C(=O)c2ccc(N(CCCl)CCCl)cc2)CC1
IC50 [5]: 1.1 nM

O=C(/C=C/c1cccnc1)OCCCCC1CCN(C(=O)c2ccc(N(CCCl)CCCl)cc2)CC1
IC50 [5]: 37.5 nM

O=C(/C=C/c1cccnc1)NCCCCC1CCN(C(=O)c2ccccc2N(CCCl)CCCl)CC1
IC50 [1]: 51.6 nM | IC50 [2]: 53.8 nM | IC50 [5]: 0.16 nM | IC50 [3]: 72.5 nM | IC50 [4]: 31.3 nM | Activity [6]: Active

O=C(/C=C/c1cccnc1)OCCCCC1CCN(C(=O)c2cccc(N(CCCl)CCCl)c2)CC1
IC50 [5]: 3.9 nM

O=C(/C=C/c1cccnc1)NCCCCC1CCN(C(=O)c2cccc(N(CCCl)CCCl)c2)CC1
Activity [7]: Active | Activity [8]: Active | Activity [9]: inactive | Activity [10]: Active | Activity [11]: Active | IC50 [1]: 5.1 nM | Activity [12]: Non-Toxic | Activity [13]: Active | Activity [14]: inactive | Activity [15]: Active | inhibition [16]: Active | Activity [17]: Active | inhibition [18]: Active | Activity [19]: Active | IC50 [2]: 21.8 nM | Activity [20]: Active | Activity [21]: Active | Activity [22]: Non-Toxic | IC50 [5]: 0.15 nM | Activity [23]: Active | IC50 [3]: 52.4 nM | Activity [24]: Active | half-life [25]: 56.1 s | inhibition [26]: Active | Activity [27]: Dose-Dependent Effect | IC50 [4]: 0.7 nM | Activity [28]: Dose-Dependent Effect | Activity [6]: Active | inhibition [29]: Active | Activity [30]: Active | inhibition [31]: Active | Activity [32]: Dose-Dependent Effect | inhibition [33]: Active

O=C(/C=C/c1cccnc1)NCCCCC1CCN(C(=O)c2ccccc2)CC1 [DAPORINAD]
Activity [10]: Active | IC50 [1]: 33.6 nM | IC50 [2]: 34.9 nM | Activity [21]: Active | IC50 [3]: 219 nM | IC50 [4]: 33.6 nM

O=C(/C=C/c1cccnc1)OCCCCC1CCN(C(=O)c2ccccc2N(CCCl)CCCl)CC1
IC50 [5]: 1.3 nM
